Publication PMC10693528, “A high-throughput metabolomics in vitro platform for the characterization of hepatotoxicity” (Cell Biology and Toxicology, 2023)

System: HepG2 cells
Assay: LC-MS/MS targeted intracellular metabolomics
Type: cell-based, human
Conditions: Suppl Fig 11, C3, 48 h
Procedure: Metabolite profiling of cells was performed directly in the same 96-well plate according to a standardized protocol described below. In order to prevent any interaction with the cell material, the automatic sampler was adjusted to pick up the sample from the supernatant at a specified depth avoiding the contact with the bottom of the plate.
After the initial quenching step (50 μL isopropanol 80%), additional 70 μL of isopropanol 80%, containing internal standards (methionine-D3, tryptophan-D5, arginine-13C6-15N4, Boc-Ala-Gly-Gly-Gly-OH, coenzyme Q1, coenzyme Q2, coenzyme Q4) were added to each well. The internal standards were used for quality control by visual inspection (signal intensity, peak shape, retention time); they were not used for normalization. Afterwards, plates were shaken for 5 min, 750 rpm at 20 °C, and placed for 30 s in the ultrasonic device. Then, the plates were centrifugated for 10 min, at 5485 g, 15 °C. Further, 2.5 μL of the extract were injected each for reversed-phase and hydrophilic interaction liquid chromatography followed by MS/MS detection (AB Sciex QTrap 6500+) using the positive and negative ionization mode. For reverse-phase high-performance liquid chromatography (RP-HPLC, Ascentis Express C18, 5 cm × 2.1 mm, 2.7 μm Supelco), gradient elution was performed with mobile phase A, water/methanol/0.1 M ammonium formate (1:1:0.02, w/w), and B, methyl-tert-butylether/2-propanol/methanol/0.1 M ammonium formate/formic acid (4:2:1:0.07:0.035, w/w) 5.9 min linear gradient: 0 min 100% A, 0.5 min 75% A, 5.9 min 10% A; followed by 0% A until 6.7 min; re-equilibration at 100% A until 7.7 min; flow rate 600 μL/min; column temperature 40 °C HILIC (ZIC-HILIC, 2.1 × 100 mm, 3.5 μm, Supelco) gradient elution was performed with mobile phase C, acetonitrile/water (99:1, v/v) with 0.2% (v) acetic acid, and D, 7 mM ammonium acetate with 0.2% (v) acetic acid (5.0 min linear gradient: 0 min 100% C, 5 min 10% C; followed by a linear gradient back to 100%C until 6.5 min; re-equilibration at 100% C until 7.5 min; flow rate 600 μL/min; column temperature 40 °C.). Two LC-MS systems with identical configuration were used for the analysis. Normalization to lyophilized reference samples (see below) was used to compensate for variation from between analytical batches. The efficiency of this normalization procedure was checked by principal component analysis (PCA), confirming that Pool samples from different analytical batches clustered together.
Reference samples derived from lyophilized untreated HepG2 cells (technical control samples) were measured in parallel throughout the entire analytical process. Data were normalized against the median of these lyophilized HepG2 cells reference samples, to give normalized ratios (performed for each sample per metabolite). This compensated for inter- and intra-instrumental variation. To correct for small differences in cell numbers within and between different treatment groups, data were also normalized to the within sample median, as described in detail by (Ramirez et al. [2018]). For intracellular metabolomic analysis, the median of each sample was calculated across all the 221 measured metabolites.
To generate metabolic profiles for the different treatments, heteroscedastic t test (Welch test) was applied to log-transformed normalized metabolite data to compare treated groups with their respective controls.
Principal component analysis (PCA) and hierarchical clustering (HCA) analyses were performed using R software environment (https://www.r-project.org/). PCA was conducted using the ropls package (Thévenot et al. [2015]) with log10-transformed input data and standard scaling. HCA was performed using the pvclust package (Suzuki et al. [2019]), (https://CRAN.R-project.org/package=pvclust). Input: log10(Ratio), clustering method: Ward D2, distance method: Manhattan, bootstrapping: 10000 times.

Compound: CC(=O)N1CCN(c2ccc(OCC3COC(Cn4ccnc4)(c4ccc(Cl)cc4Cl)O3)cc2)CC1 (centres unmarked) [Ketoconazole]
- 2'-Deoxycytidine level vs controls: 0.76
- 5-Hydroxytryptophan level vs controls: 0.87
- Carnitine level vs controls: 0.77
- Ceramide (d16:1.C24:0) level vs controls: 0.48
- Ceramide (d17:1.C24:0) level vs controls: 0.40
- Ceramide (d18:1.C16:0) level vs controls: 0.74
- Ceramide (d18:1.C18:0) level vs controls: 0.58
- Ceramide (d18:1.C20:0) level vs controls: 0.38
- Ceramide (d18:1.C21:0) level vs controls: 0.64
- Ceramide (d18:1.C22:0) level vs controls: 0.54
- Ceramide (d18:1.C23:0) level vs controls: 0.50
- Ceramide (d18:1.C24:0) level vs controls: 0.60
- Ceramide (d18:1.C24:1) level vs controls: 0.70
- Ceramide (d18:2.C16:0) level vs controls: 0.55
- Ceramide (d18:2.C18:0) level vs controls: 0.38
- Ceramide (d18:2.C22:0) level vs controls: 0.39
- Ceramide (d18:2.C23:0) level vs controls: 0.49
- Ceramide (d18:2.C24:0) level vs controls: 0.48
- Ceramide (d18:2.C24:1) level vs controls: 0.66
- Ceramide (d18:2.C24:2) level vs controls: 0.36
- Cholesterylester (C20:2) level vs controls: 0.58
- Choline plasmalogen (C36:4) level vs controls: 1.23
- Choline plasmalogen (C36:5) level vs controls: 1.44
- Coenzyme Q10 level vs controls: 0.65
- Glutamate level vs controls: 0.92
- Glutathione (GSH) level vs controls: 0.90
- Hexadecanoylcarnitine level vs controls: 1.97
- Hexadecenoylcarnitine level vs controls: 3.61
- Isopentenyl pyrophosphate (IPP) level vs controls: 0.50
- Lysophosphatidylcholine (C14:0) level vs controls: 1.21
- Lysophosphatidylcholine (C16:0) level vs controls: 1.96
- Lysophosphatidylcholine (C16:1) level vs controls: 2.67
- Lysophosphatidylcholine (C20:0) level vs controls: 1.34
- Lysophosphatidylcholine (C20:1) level vs controls: 1.07
- Lysophosphatidylcholine (C20:4) level vs controls: 6.43
- Lysophosphatidylcholine (C22:0) level vs controls: 1.53
- Lysophosphatidylcholine (C24:1) level vs controls: 2.21
- Lysophosphatidylethanolamine (C16:0) level vs controls: 0.82
- Lysophosphatidylethanolamine (C18:0) level vs controls: 1.22
- Lysophosphatidylethanolamine (C20:4) level vs controls: 4.71
- Lysophosphatidylethanolamine (C22:6) level vs controls: 4.79
- N-Acetylaspartate level vs controls: 0.69
- N-Acetylserine level vs controls: 0.84
- Octadecenoylcarnitine level vs controls: 3.35
- Pantothenic acid level vs controls: 0.85
- Phosphatidylcholine (C32:0) level vs controls: 0.81
- Phosphatidylcholine (C34:0) level vs controls: 0.81
- Phosphatidylcholine (C34:1) level vs controls: 0.79
- Phosphatidylcholine (C34:2) level vs controls: 0.89
- Phosphatidylcholine (C34:3) level vs controls: 1.19
- Phosphatidylcholine (C36:1) level vs controls: 0.77
- Phosphatidylcholine (C36:2) level vs controls: 0.64
- Phosphatidylcholine (C36:3) level vs controls: 0.89
- Phosphatidylcholine (C36:4) level vs controls: 0.67
- Phosphatidylcholine (C36:5) level vs controls: 0.66
- Phosphatidylcholine (C38:4) level vs controls: 1.06
- Phosphatidylcholine (C38:6) level vs controls: 0.74
- Phosphatidylcholine (C40:6) level vs controls: 1.10
- Phosphatidylcholine (C40:7) level vs controls: 1.16
- Phosphatidylcholine (C40:8) level vs controls: 1.11
- Phosphatidylethanolamine (C32:0) level vs controls: 0.86
- Phosphatidylethanolamine (C34:0) level vs controls: 0.73
- Phosphatidylethanolamine (C34:1) level vs controls: 0.82
- Phosphatidylethanolamine (C36:0) level vs controls: 0.70
- Phosphatidylethanolamine (C36:1) level vs controls: 0.78
- Phosphatidylethanolamine (C36:2) level vs controls: 0.93
- Phosphatidylethanolamine (C36:4) level vs controls: 0.96
- Phosphatidylethanolamine (C38:3) level vs controls: 0.90
- Phosphatidylethanolamine (C38:4) level vs controls: 1.10
- Phosphatidylethanolamine (C38:5) level vs controls: 1.10
- Phosphatidylethanolamine (C38:6) level vs controls: 0.86
- Phosphatidylethanolamine (C40:7) level vs controls: 1.09
- Phosphocholine level vs controls: 0.82
- Pipecolic acid level vs controls: 0.86
- Proline level vs controls: 0.79
- Pyridoxal level vs controls: 0.82
- S-Adenosylhomocysteine level vs controls: 0.69
- Sphingomyelin (d32:1) level vs controls: 1.49
- Sphingomyelin (d32:2) level vs controls: 1.28
- Sphingomyelin (d33:1) level vs controls: 1.18
- Sphingomyelin (d34:0) level vs controls: 2.87
- Sphingomyelin (d34:2) level vs controls: 1.31
- Sphingomyelin (d35:1) level vs controls: 1.86
- Sphingomyelin (d35:2) level vs controls: 1.71
- Sphingomyelin (d36:1) level vs controls: 1.62
- Sphingomyelin (d36:2) level vs controls: 1.45
- Sphingomyelin (d36:3) level vs controls: 1.48
- Sphingomyelin (d37:1) level vs controls: 1.49
- Sphingomyelin (d38:1) level vs controls: 1.42
- Sphingomyelin (d38:2) level vs controls: 1.21
- Sphingomyelin (d39:1) level vs controls: 1.79
- Sphingomyelin (d40:1) level vs controls: 1.85
- Sphingomyelin (d40:2) level vs controls: 1.67
- Sphingomyelin (d41:1) level vs controls: 1.75
- Sphingomyelin (d41:2) level vs controls: 1.88
- Sphingomyelin (d42:1) level vs controls: 1.54
- Sphingomyelin (d42:2) level vs controls: 1.83
- Taurine level vs controls: 1.32
- Tetradecanoylcarnitine level vs controls: 2.20
- Threonine level vs controls: 0.85
- Triacylglycerol (C30:0.C18:1) level vs controls: 0.61
- Triacylglycerol (C32:0.C16:0) level vs controls: 0.23
- Triacylglycerol (C32:0.C16:1) level vs controls: 0.51
- Triacylglycerol (C34:0.C16:0) level vs controls: 0.16
- Triacylglycerol (C34:0.C17:0) level vs controls: 0.34
- Triacylglycerol (C34:0.C18:0) level vs controls: 0.14
- Triacylglycerol (C34:0.C18:1) level vs controls: 0.31
- Triacylglycerol (C34:1.C16:0) level vs controls: 0.44
- Triacylglycerol (C34:1.C18:1) level vs controls: 0.83
- Triacylglycerol (C34:1.C18:3) level vs controls: 1.33
- Triacylglycerol (C34:2.C18:0) level vs controls: 0.68
- Triacylglycerol (C34:2.C18:1) level vs controls: 1.31
- Triacylglycerol (C36:1.C18:0) level vs controls: 0.27
- Triacylglycerol (C36:1.C18:1) level vs controls: 0.61
- Triacylglycerol (C36:2.C18:1) level vs controls: 1.14
- Triacylglycerol (C36:3.C18:1) level vs controls: 1.57
- Triacylglycerol (C36:3.C18:2) level vs controls: 2.03
- Triacylglycerol (C36:4.C16:0) level vs controls: 1.15
- Triacylglycerol (C36:4.C18:0) level vs controls: 1.19
- myo-Inositol-2-phosphate level vs controls: 0.50
- Sphingomyelin (d34:1) level vs controls (first of two lines with this name): 1.40
- Sphingomyelin (d34:1) level vs controls (second of two lines with this name): 1.16
